Assays:
Plasmodium falciparum = assay: Antiplasmodial activity against Plasmodium falciparum 3D7; format: functional, organism-based
[1] = Inhibition of rat PFT
[2] = Inhibition of Plasmodium falciparum PFT

| SMILES | IC50 (Plasmodium falciparum) | pIC50 [1] | pIC50 [2] |
| --- | --- | --- | --- |
| C=C(C)CN(C1Cc2cc(C#N)ccc2N(Cc2cncn2C)C1)S(=O)(=O)c1cn(C)cn1 (stereo unspecified) | 6.92 nM | 9.16 | 9.22 |
| Cn1cnc(S(=O)(=O)N(Cc2ccccc2)C2Cc3cc(C#N)ccc3N(Cc3cncn3C)C2)c1 (stereo unspecified) | 5.01 nM | 8.92 | 9.22 |
| Cn1cnc(S(=O)(=O)N(CC(=O)OC(C)(C)C)C2Cc3cc(C#N)ccc3N(Cc3cncn3C)C2)c1 (stereo unspecified) | 5.01 nM | 8.92 | 9.05 |
| Cc1ccccc1CN(C1Cc2cc(C#N)ccc2N(Cc2cncn2C)C1)S(=O)(=O)c1cn(C)cn1 (stereo unspecified) | 55 nM | 8.47 | 8.82 |
| Cn1cncc1CN1CC(N(Cc2ccccn2)S(=O)(=O)c2ccccn2)Cc2cc(C#N)ccc21 (stereo unspecified) | 51.3 nM | 8.42 | 8.55 |
| Cn1cncc1CN1CC(N(CC(=O)NC(C)(C)C)S(=O)(=O)c2nccn2C)Cc2cc(C#N)ccc21 (stereo unspecified) | > 5010 nM | 8.3 | 8.1 |
| C=C(Br)CN(C1Cc2cc(C#N)ccc2N(Cc2cncn2C)C1)S(=O)(=O)c1cn(C)cn1 (stereo unspecified) | 6.03 nM | 9.1 | 9.4 |
| Cn1cnc(S(=O)(=O)N(Cc2ccc3ccccc3c2Br)C2Cc3cc(C#N)ccc3N(Cc3cncn3C)C2)c1 (stereo unspecified) | 3020 nM | 6 | 7.55 |
| Cn1cnc(S(=O)(=O)N(CC(=O)NC(C)(C)C)C2Cc3cc(C#N)ccc3N(Cc3cncn3C)C2)c1 (stereo unspecified) | 5.01 nM | 8.82 | 8.92 |
| Cn1cncc1CN1CC(N(CC(=O)NC(C)(C)C)S(=O)(=O)c2cccnc2)Cc2cc(C#N)ccc21 (stereo unspecified) | 2690 nM | 8.22 | 7.6 |
| Cn1cncc1CN1CC(N(CC(=O)NC(C)(C)C)S(=O)(=O)c2ccc(F)cc2)Cc2cc(C#N)ccc21 (stereo unspecified) | > 5010 nM | 8.12 | 7.38 |
| Cn1cncc1CN1CC(N(Cc2cc3nsnc3cc2Cl)S(=O)(=O)c2ccccn2)Cc2cc(C#N)ccc21 (stereo unspecified) | 3020 nM | 8 | 7.26 |
| Cc1onc(-c2ccccc2)c1CN(C1Cc2cc(C#N)ccc2N(Cc2cncn2C)C1)S(=O)(=O)c1ccccn1 (stereo unspecified) | 112 nM | 8.52 | 9.1 |
| Cn1cnc(S(=O)(=O)N(CC2CCN(C(=O)OC(C)(C)C)CC2)C2Cc3cc(C#N)ccc3N(Cc3cncn3C)C2)c1 (stereo unspecified) | 100 nM | 8.5 | 8.96 |
| Cn1cncc1CN1CC(N(Cc2ccc3ccccc3c2Br)S(=O)(=O)c2ccccn2)Cc2cc(C#N)ccc21 (stereo unspecified) | 2750 nM | 6.36 | 6.78 |
| Cn1cncc1CN1CC(N(CC(=O)NC(C)(C)C)S(=O)(=O)c2ccncc2)Cc2cc(C#N)ccc21 (stereo unspecified) | > 5010 nM | 6.8 | 6 |
| Cn1cncc1CN1CC(N(CC(=O)NC(C)(C)C)S(=O)(=O)c2ccccn2)Cc2cc(C#N)ccc21 (stereo unspecified) | 85.1 nM | 8.75 | 8.85 |

Reference: ChEMBL document CHEMBL1154458, “QSAR study on tetrahydroquinoline analogues as plasmodium protein farnesyltransferase inhibitors: a comparison of rationales of malarial and mammalian enzyme inhibitory activities for selectivity” (Eur J Med Chem, 2008)
